From ChEMBL document CHEMBL5230123, “A comprehensive review of monoamine oxidase inhibitors as Anti-Alzheimer's disease agents: A review” (Eur J Med Chem, 2020)

Columns and labels:
[1] = target: T1, Amine oxidase [flavin-containing] B (Homo sapiens, UniProt P27338); assay: Inhibition of human MAO-B using tyramine hydrochloride as substrate preincubated for 30 mins followed by substrate addition and measured after 30 mins by fluorescence assay
T1 sequence (P27338 whole entry): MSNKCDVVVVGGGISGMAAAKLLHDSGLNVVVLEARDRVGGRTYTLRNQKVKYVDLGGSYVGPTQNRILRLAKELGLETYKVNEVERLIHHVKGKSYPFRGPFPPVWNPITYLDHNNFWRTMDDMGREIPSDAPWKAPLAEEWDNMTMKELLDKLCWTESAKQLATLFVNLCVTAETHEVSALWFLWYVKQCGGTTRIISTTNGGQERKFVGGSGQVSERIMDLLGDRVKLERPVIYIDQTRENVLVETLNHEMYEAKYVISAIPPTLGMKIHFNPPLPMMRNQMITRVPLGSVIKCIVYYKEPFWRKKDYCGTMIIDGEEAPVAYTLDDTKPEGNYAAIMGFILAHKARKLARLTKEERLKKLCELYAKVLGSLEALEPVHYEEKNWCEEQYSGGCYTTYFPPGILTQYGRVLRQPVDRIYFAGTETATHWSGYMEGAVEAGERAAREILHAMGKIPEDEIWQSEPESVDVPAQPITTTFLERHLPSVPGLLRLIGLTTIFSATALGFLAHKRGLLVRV

[2] = target: Acetylcholinesterase (Electrophorus electricus, UniProt O42275); assay: Inhibition of electric eel AChE using acetylthiocholine iodide as substrate incubated for 15 mins by Ellman's method
[3] = target: T2, Amine oxidase [flavin-containing] A (Homo sapiens, UniProt P21397); assay: Inhibition of human MAO-A assessed as inhibition constant using kynuramine as substrate
T2 sequence (P21397 whole entry): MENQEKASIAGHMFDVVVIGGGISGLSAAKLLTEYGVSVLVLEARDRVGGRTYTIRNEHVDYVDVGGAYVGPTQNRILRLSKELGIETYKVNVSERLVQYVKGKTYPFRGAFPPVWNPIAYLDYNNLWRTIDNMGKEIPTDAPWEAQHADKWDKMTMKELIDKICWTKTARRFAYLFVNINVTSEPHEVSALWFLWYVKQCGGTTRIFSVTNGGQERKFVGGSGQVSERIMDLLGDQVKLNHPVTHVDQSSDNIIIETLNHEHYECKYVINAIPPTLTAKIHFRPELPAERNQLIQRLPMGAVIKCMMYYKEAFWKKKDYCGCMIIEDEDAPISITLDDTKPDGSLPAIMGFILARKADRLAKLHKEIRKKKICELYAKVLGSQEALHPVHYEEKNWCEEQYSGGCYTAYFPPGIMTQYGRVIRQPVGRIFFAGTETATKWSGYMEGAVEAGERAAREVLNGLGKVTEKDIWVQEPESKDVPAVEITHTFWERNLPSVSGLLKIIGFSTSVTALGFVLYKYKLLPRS

[4] = target: T1, Amine oxidase [flavin-containing] B; assay: Inhibition of human MAO-B using benzylamine as substrate
[5] = target: T2, Amine oxidase [flavin-containing] A; assay: Mixed type inhibition of human MAO-A assessed as inhibition constant by Lineweaver-Burk plot analysis
[6] = target: T1, Amine oxidase [flavin-containing] B; assay: Inhibition of human MAO-B
[7] = target: T1, Amine oxidase [flavin-containing] B; assay: Inhibition of human MAO-B assessed as inhibition constant using benzylamine as substrate

Chain of Acetylcholinesterase (O42275 whole entry): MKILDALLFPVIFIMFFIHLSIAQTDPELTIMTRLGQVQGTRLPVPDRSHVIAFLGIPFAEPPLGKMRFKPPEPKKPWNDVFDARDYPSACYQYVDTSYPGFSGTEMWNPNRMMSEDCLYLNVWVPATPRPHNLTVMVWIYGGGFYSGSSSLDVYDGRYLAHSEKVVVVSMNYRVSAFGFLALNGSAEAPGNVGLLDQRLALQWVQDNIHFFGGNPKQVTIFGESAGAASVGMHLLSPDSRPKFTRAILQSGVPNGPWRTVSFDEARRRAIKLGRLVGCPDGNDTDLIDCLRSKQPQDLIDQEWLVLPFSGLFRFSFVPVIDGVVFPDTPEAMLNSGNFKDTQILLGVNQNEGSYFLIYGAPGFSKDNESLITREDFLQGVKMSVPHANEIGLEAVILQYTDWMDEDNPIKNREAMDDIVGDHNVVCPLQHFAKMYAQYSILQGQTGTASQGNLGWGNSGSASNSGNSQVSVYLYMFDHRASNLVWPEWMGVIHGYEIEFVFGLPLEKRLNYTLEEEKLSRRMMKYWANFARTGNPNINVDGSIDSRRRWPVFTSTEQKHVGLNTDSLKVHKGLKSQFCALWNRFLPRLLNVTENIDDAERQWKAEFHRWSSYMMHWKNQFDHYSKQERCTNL

For O=C(CSC(=S)N1CCN(c2ccc([N+](=O)[O-])cc2)CC1)N(Cc1ccc([N+](=O)[O-])cc1)c1ccc(F)cc1, the IC50 [1] was 97 nM.
C#CCN1C(=O)/C(=N/NC(=O)c2ccc3c(c2)OCO3)c2ccccc21 showed an IC50 [2] of 52 nM.
COc1cc(/C=C/C(=O)CC(=O)/C=C/c2ccc(O)cc2)ccc1O was tested, and the Ki [3] was 910 nM and the IC50 [4] was 2450 nM.
In the case of COc1cc(O)c2c(=O)oc3cc(O)cc(C)c3c2c1, the Ki [5] is reported as 340 nM and the IC50 [6] is reported as greater than 80000 nM.
Work on O=C(/C=C/c1ccc(O)cc1)CC(=O)/C=C/c1ccc(O)cc1 [BISDEMETHOXYCURCUMIN] yielded a Ki [7] of 800 nM and an IC50 [4] of 2590 nM.
